Experimental data as given in article PMC9290507, “Rh^II‐Catalyzed De‐symmetrization of Ethane‐1,2‐dithiol and Propane‐1,3‐dithiol Yields Metallo‐β‐lactamase Inhibitors” (Chemmedchem, 2021).

Columns and labels:
NDM‐1 = target: T1, NDM‐1 (Klebsiella pneumoniae, UniProt C7C422); assay: Fluorescence-based enzyme activity assay (Fluorocillin), NDM-1; type: biochemical
T1 construct: made in house
Method: (§1) In order to investigate the structure‐activity relationships of the dithiol library, we measured the inhibitory activity of 3 a–x in a fluorescence‐based enzyme activity assay (Table 1). Two relevant β‐lactamase isoforms, NDM‐1 and VIM‐1 were selected for in vitro assays. The fluorogenic substrate fluorocillin[15] was prepared according to literature and its conversion was monitored as described previously.[6] In general, a linear relationship between the potency of 3 a–x towards both enzymes could be observed, however, inhibitory potency towards VIM‐1 was almost tenfold higher (Figure 3). A very clear preference for the propane‐1,3‐dithiol over ethane‐1,2‐dithiol compounds could be observed from matched molecular pairs.
(§2) Activity assays for MBLs were performed at room temperature in black polystyrol 96well plates (Corning, Corning, NY, USA) using dicefalotinodifluorofluorescein (Fluorocillin) as a substrate. Proteins were diluted in assay buffer (HEPES 50 mM, pH 7.5 containing 0.01 %Triton X‐100), with final protein concentrations of NDM‐1: 3 nM, or VIM‐1: 4 nM. Samples were supplemented with an equimolar amount of ZnCl2. An amount of 1 μL of compounds 3 a–3 x at different concentrations was incubated with 89 μL of enzyme in assay buffer. After an incubation period of 30 min at room temperature, 10 μL of Fluorocillin substrate was added to yield the final assay volume of 100 μL. Final concentration of DMSO was 1 %. The fluorescence emitted by the fluorescent product difluorofluorescein was monitored every 45 s for 30 cycles using a Tecan fluorescent plate reader (Infinite 200; excitation at 495 nm and emission at 525 nm) and was compared with a standard curve. The rate of the enzymatic reaction was obtained by dividing the quantity of the fluorescent product (RFU) by time (min). Negative controls were measured in the absence of enzyme, whereas the positive controls were measured in the presence of enzyme and in the absence of inhibitors. The inhibitory effect of each substance was measured in triplicate in three independent experiments. IC50 values were calculated using data obtained from measurements with at least eight different inhibitor concentrations, applying a sigmoidal dose–response (variable slope with four parameters) equation using GraphPad Prism 5 (GraphPad Software, La Jolla, CA, USA) software. In order to investigate the inhibitory activity of 3 a, 3 o, or 3 s in the presence of a high Zn^2+ concentration, assay buffer containing an additional 100 μM ZnCl2 was used. The assay was performed as described above with NDM‐1 or VIM‐1 and 10 μM of 3 a, 3 o, or 3 s.

VIM‐1 = target: T2, VIM‐1 (Pseudomonas aeruginosa, UniProt A0A0F7KYQ8); assay: Fluorescence-based enzyme activity assay (Fluorocillin), VIM-1; type: biochemical
T2 construct: made in house
Method: as §1, §2

VIM‐2 = target: T3, VIM‐2 (Escherichia coli, UniProt Q5U7L7); assay: Kd determination using isothermal titration calorimetry; type: binding; conditions: ITC, 250 μM compound into 50 μM VIM-2, 25 °C
T3 construct: made in house
Method: The next step was the investigation of the binding thermodynamics of 3 a, 3 o, and 3 s. For these experiments we used a closely related enzyme VIM‐2 which is an isoform of VIM‐1 and can be recombinantly expressed in very high concentrations, suitable tor isothermal titration calorimetry (ITC) experiments (Figure 6).
VIM‐2 expression and purification was published elsewhere.[19] Before the measurement the VIM‐2 protein was dialyzed against 500 times the volume of buffer (50 mM Tris, 500 mM NaCl, 5 % (v/v) glycerol with a pH=8) using a dialysis membrane with a 3.5 kDa MWCO. For the measurements the compounds 3 a, 3 o, or 3 s, respectively, were diluted using the dialyses buffer to a final concentration of 250 μM containing a final DMSO concentration of 1 %. The VIM‐2 protein was diluted to a final concentration of 50 μM, supplemented with 1 % DMSO using the dialysis buffer and pure DMSO. For the control measurements dialysis buffer was supplemented with pure DMSO to a final concentration of 1 %. The measurements were performed using an “Affinity ITC” (TA‐Instruments) in reversed mode, with a stir rate of 75 rpm and a temperature of 25 °C. The VIM‐2 was placed in the cell and the respective compound in the syringe. For blank measurements either the protein or compound dilution were exchanged with buffer containing 1 % DMSO. For the measurements of 3 a and 3 s one time 0.5 μl was injected followed by 50 injections of 2 μl with a spacing of 240 s. 3 o was measured with one injection of 0.5 μl followed by 35 injections of 2 μl with a spacing of 240 s. The data were analyzed using the “NanoAnalyze Data Analysis” software (version 3.10.0; TA‐Instruments).

E. coli NDM‐1 (T2359) [1] = assay: Intrinsic antimicrobial activity (MIC, CLSI microdilution), E. coli NDM-1; type: cell-based
Method: (§3) Minimal inhibitory concentrations (MICs) of imipenem monohydrate (Sigma‐Aldrich)±compound 3 a, 3 o, or 3 s against transformed E. coli strains producing NDM‐1 or VIM‐1 were determined according to microdilution method established by Clinical and Laboratory Standards Institute (CLSI).^20 The checkerboard assay was performed to test for synergy in vitro. The microtiter‐plates were set up with serial doubling dilutions of compound 3 a, 3 o, or 3 s (2‐128 mg/L) and imipenem (0.125‐128 mg/L).

E. coli VIM‐1 (T2544) [2] = assay: Intrinsic antimicrobial activity (MIC, CLSI microdilution), E. coli VIM-1; type: cell-based; conditions: Escherichia coli
Method: as §3

E. coli NDM‐1 (T2359) [3] = assay: Checkerboard synergy assay with imipenem, E. coli NDM-1; type: cell-based; conditions: for Imipenem MIC: E. coli NDM-1 (T2359)
Method: (§4) To investigate this, the MIC of imipenem or combined with various concentrations of compound 3a, 3o, or 3 s was determined against E. coli transformants producing NDM‐1 or VIM‐1 (Table 3 and 4).
as §3

E. coli VIM‐1 (T2544) [4] = assay: Checkerboard synergy assay with imipenem, E. coli VIM-1; type: cell-based; conditions: for Imipenem MIC: E. coli VIM-1 (T2544)
Method: as §4, §3

[5] = 10 μM compound, additional 100 μM ZnCl2 in assay buffer
[6] = Escherichia coli, read-out: Imipenem MIC

T1 sequence (C7C422 29-270, looked up, species assumed): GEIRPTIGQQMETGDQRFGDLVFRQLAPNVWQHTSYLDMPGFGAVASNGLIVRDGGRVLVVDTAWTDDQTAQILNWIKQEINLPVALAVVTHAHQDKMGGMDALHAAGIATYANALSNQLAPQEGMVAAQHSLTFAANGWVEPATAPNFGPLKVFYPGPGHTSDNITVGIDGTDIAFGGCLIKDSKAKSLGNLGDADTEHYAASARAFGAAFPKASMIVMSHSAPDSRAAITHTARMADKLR

## CN(C(=O)CSCCS)[C@H]1CCCC[C@@H]1O (relative stereo) [3 v, N‐((1S*,2S*)‐2‐Hydroxycyclohexyl)‐2‐((2‐mercaptoethyl)thio)‐N‐methylacetamide]
NDM‐1
  IC50: 5.5 ± 0.3 µM
VIM‐1
  IC50: 0.33 ± 0.02 µM

## O=C1CCCC1SCCCS (stereo not shown) [3 a, 2‐((3‐Mercaptopropyl)thio)cyclopentanone]
NDM‐1
  IC50: 0.48 ± 0.07 µM
NDM‐1; [5]
  Effect of added zinc ions on inhibitory activity (NDM-1): does not impair the inhibitory activity
VIM‐1
  IC50: 0.17 ± 0.04 µM
VIM‐1; [5]
  Effect of added zinc ions on inhibitory activity (VIM-1): does not impair the inhibitory activity
VIM‐2
  Kd: 0.88 µM
VIM‐2; inset of Figure 6
  Kd: 0.878 µM
E. coli NDM‐1 (T2359) [1]; Escherichia coli
  MIC: > 512 µg/mL
E. coli NDM‐1 (T2359) [1]; compound alone, E. coli transformants producing NDM-1 or VIM-1 (Table 2)
  Intrinsic antimicrobial activity: no intrinsic antimicrobial activity
E. coli VIM‐1 (T2544) [2]
  MIC: > 512 µg/mL
E. coli NDM‐1 (T2359) [3]; +2 μg/ml compound
  Imipenem MIC: 128 µg/mL
E. coli NDM‐1 (T2359) [3]; +4 μg/ml compound
  Imipenem MIC: 128 µg/mL
E. coli NDM‐1 (T2359) [3]; +8 μg/ml compound
  Imipenem MIC: 128 µg/mL
E. coli NDM‐1 (T2359) [3]; +16 μg/ml compound
  Imipenem MIC: 64 µg/mL
E. coli NDM‐1 (T2359) [3]; +32 μg/ml compound
  Imipenem MIC: 64 µg/mL
E. coli NDM‐1 (T2359) [3]; +64 μg/ml compound
  Imipenem MIC: 64 µg/mL
E. coli NDM‐1 (T2359) [3]; +128 μg/ml compound
  Imipenem MIC: 32 µg/mL
E. coli VIM‐1 (T2544) [4]; +2 μg/ml compound
  Imipenem MIC: 32 µg/mL
E. coli VIM‐1 (T2544) [4]; +4 μg/ml compound
  Imipenem MIC: 32 µg/mL
E. coli VIM‐1 (T2544) [4]; +8 μg/ml compound
  Imipenem MIC: 16 µg/mL
E. coli VIM‐1 (T2544) [4]; +16 μg/ml compound
  Imipenem MIC: 16 µg/mL
E. coli VIM‐1 (T2544) [4]; +32 μg/ml compound
  Imipenem MIC: 16 µg/mL
E. coli VIM‐1 (T2544) [4]; +64 μg/ml compound
  Imipenem MIC: 16 µg/mL
E. coli VIM‐1 (T2544) [4]; +128 μg/ml compound
  Imipenem MIC: 8 µg/mL

## Cc1ccc(C(=O)CSCCS)cc1 [3 b, 2‐((2‐Mercaptoethyl)thio)‐1‐(p–tolyl)ethanone]
NDM‐1
  IC50: 3.91 ± 0.42 µM
VIM‐1
  IC50: 0.22 ± 0.03 µM

## Cc1ccc(C(=O)CSCCCS)cc1 [3 c, 2‐((3‐Mercaptopropyl)thio)‐1‐(p–tolyl)ethanone]
NDM‐1
  IC50: 0.25 ± 0.06 µM
VIM‐1
  IC50: 0.07 ± 0.01 µM

## O=C(CSCCS)c1ccc(Cl)cc1 [3 d, 1‐(4‐Chlorophenyl)‐2‐((2‐mercaptoethyl)thio)ethanone]
NDM‐1
  IC50: 5.63 ± 1.19 µM
VIM‐1
  IC50: 0.23 ± 0.01 µM

## O=C(CSCCCS)c1ccc(F)cc1 [3 e, 1‐(4‐Fluorophenyl)‐2‐((3‐mercaptopropyl)thio)ethanone]
NDM‐1
  IC50: 0.6 ± 0.03 µM
VIM‐1
  IC50: 0.23 ± 0.05 µM

## COc1ccc(C(=O)CSCCS)cc1 [3 f, 2‐((2‐Mercaptoethyl)thio)‐1‐(4‐methoxyphenyl)ethanone]
NDM‐1
  IC50: 1.34 ± 0.32 µM
VIM‐1
  IC50: 0.18 ± 0.01 µM

## COc1ccc(C(=O)CSCCCS)cc1 [3 g, 2‐((3‐Mercaptopropyl)thio)‐1‐(4‐methoxyphenyl)ethanone]
NDM‐1
  IC50: 0.43 ± 0.02 µM
VIM‐1
  IC50: 0.14 µM

## O=C1OCCC1SCCS (stereo not shown) [3 h, 3‐((2‐Mercaptoethyl)thio)dihydrofuran‐2(3H)‐one]
NDM‐1
  IC50: 3.63 ± 0.47 µM
VIM‐1
  IC50: 0.46 ± 0.03 µM

## COC(=O)C(SCCS)c1ccc(Cl)cc1 (stereo not shown) [3 i, Methyl 2‐(4‐chlorophenyl)‐2‐((2‐mercaptoethyl)thio)acetate]
NDM‐1
  IC50: 0.88 ± 0.16 µM
VIM‐1
  IC50: 0.19 ± 0.01 µM

## CCOC(=O)C(SCCS)c1ccc([N+](=O)[O-])cc1 (stereo not shown) [3 j, Ethyl 2‐((2‐mercaptoethyl)thio)‐2‐(4‐nitrophenyl)acetate]
NDM‐1
  IC50: 1.55 ± 0.42 µM
VIM‐1
  IC50: 0.9 ± 0.06 µM

## CCOC(=O)C(SCCCS)c1ccc([N+](=O)[O-])cc1 (stereo not shown) [3 k, Ethyl 2‐((3‐mercaptopropyl)thio)‐2‐(4‐nitrophenyl)acetate]
NDM‐1
  IC50: 7.79 ± 1.3 µM
VIM‐1
  IC50: 0.73 ± 0.05 µM

## COC(=O)CC(SCCCS)C(=O)OC (stereo not shown) [3 l, Dimethyl 2‐((3‐mercaptopropyl)thio)succinate]
NDM‐1
  IC50: 0.44 ± 0.11 µM
VIM‐1
  IC50: 0.04 ± 0.01 µM

## CN1CCC(SCCCS)C1=O (stereo not shown) [3 m, 3‐((3‐Mercaptopropyl)thio)‐1‐methylpyrrolidin‐2‐one]
NDM‐1
  IC50: 1.58 ± 0.22 µM
VIM‐1
  IC50: 0.18 µM

## O=C1C(SCCS)CCN1c1ccccc1 (stereo not shown) [3 n, 3‐((2‐Mercaptoethyl)thio)‐1‐phenylpyrrolidin‐2‐one]
NDM‐1
  IC50: 1.41 ± 0.07 µM
VIM‐1
  IC50: 0.08 µM

## O=C1C(SCCS)CCN1c1cccc(C(F)(F)F)c1 (stereo not shown) [3 p, 3‐((2‐Mercaptoethyl)thio)‐1‐(3‐(trifluoromethyl)phenyl)pyrrolidin‐2‐one]
NDM‐1
  IC50: 2.08 ± 0.11 µM
VIM‐1
  IC50: 0.22 ± 0.01 µM

## O=C1C(SCCCS)CCN1c1cccc(C(F)(F)F)c1 (stereo not shown) [3 q, 3‐((3‐Mercaptopropyl)thio)‐1‐(3‐(trifluoromethyl)phenyl)pyrrolidin‐2‐one]
NDM‐1
  IC50: 0.48 ± 0.01 µM
VIM‐1
  IC50: 0.07 ± 0.01 µM

## O=C1C(SCCS)CCN1c1nccs1 (stereo not shown) [3 r, 3‐((2‐Mercaptoethyl)thio)‐1‐(thiazol‐2‐yl)pyrrolidin‐2‐one]
NDM‐1
  IC50: 1.54 ± 0.03 µM
VIM‐1
  IC50: 0.04 ± 0.02 µM

## N#Cc1ccc(N2CCC(SCCS)C2=O)cc1 (stereo not shown) [3 t, 4‐(3‐((2‐Mercaptoethyl)thio)‐2‐oxopyrrolidin‐1‐yl)benzonitrile]
NDM‐1
  IC50: 1.19 ± 0.12 µM
VIM‐1
  IC50: 0.1 ± 0.02 µM

## O=C(CSCCCS)N1CCN(Cc2ccc(Cl)cc2)CC1 [3 u, 1‐(4‐(4‐Chlorobenzyl)piperazin‐1‐yl)‐2‐((3‐mercaptopropyl)thio)ethan‐1‐one]
NDM‐1
  IC50: 3.31 ± 0.12 µM
VIM‐1
  IC50: 0.3 ± 0.02 µM

## CN(Cc1ccc(Cl)cc1)C(=O)CSCCS [3 w, N‐(4‐Chlorobenzyl)‐2‐((2‐mercaptoethyl)thio)‐N‐methylacetamide]
NDM‐1
  IC50: 0.58 ± 0.03 µM
VIM‐1
  IC50: 0.1 ± 0.01 µM

## Cc1ccc(S(=O)(=O)N2CCN(C(=O)CSCCS)CC2)cc1 [3 x, 2‐((2‐Mercaptoethyl)thio)‐1‐(4‐tosylpiperazin‐1‐yl)ethanone]
NDM‐1
  IC50: 2.4 ± 0.13 µM
VIM‐1
  IC50: 0.4 ± 0.03 µM

## C[C@@H](O)[C@H]1C(=O)N2C(C(=O)O)=C(SCCN=CN)C[C@H]12 [Imipenem, imipenem, reference compound]
E. coli NDM‐1 (T2359) [3]; [6]
  MIC: 128 µg/mL
E. coli VIM‐1 (T2544) [4]; [6]
  MIC: 32 µg/mL
